Several values for one entry are separate records, joined by “and”; a condition that tells them apart may be missing. Identical values can stand only once. Like-named read-outs stand apart in the source and are kept apart here.
Assays:
α2A adrenergic receptor = target: T1, α2A adrenergic receptor (Homo sapiens, UniProt P08913); experiment: PDSP radioligand binding, α2A; details: for Ki: full concentration-response curves, n = 3-6 unless noted; for inhibition at 10 µM: read-out: % inhibition at 10 µM
T1 sequence (P08913 1-465): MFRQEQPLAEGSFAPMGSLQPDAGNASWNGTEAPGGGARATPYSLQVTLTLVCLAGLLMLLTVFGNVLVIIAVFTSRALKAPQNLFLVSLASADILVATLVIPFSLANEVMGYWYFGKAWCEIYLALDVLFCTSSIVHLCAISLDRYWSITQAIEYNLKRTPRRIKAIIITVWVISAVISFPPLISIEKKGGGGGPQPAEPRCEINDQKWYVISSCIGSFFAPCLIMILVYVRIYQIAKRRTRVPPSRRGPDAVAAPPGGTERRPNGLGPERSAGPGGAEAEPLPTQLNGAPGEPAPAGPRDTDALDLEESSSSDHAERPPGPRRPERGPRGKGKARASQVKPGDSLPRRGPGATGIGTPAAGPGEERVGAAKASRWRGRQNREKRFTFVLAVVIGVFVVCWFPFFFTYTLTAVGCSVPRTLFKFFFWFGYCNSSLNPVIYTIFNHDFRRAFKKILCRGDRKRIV

α2C adrenergic receptor = target: T2, α2C adrenergic receptor (Homo sapiens, UniProt P18825); experiment: PDSP radioligand binding, α2C; details: for Ki: full concentration-response curves, n = 3-6 unless noted; for inhibition at 10 µM: read-out: % inhibition at 10 µM
T2 sequence (P18825 1-462): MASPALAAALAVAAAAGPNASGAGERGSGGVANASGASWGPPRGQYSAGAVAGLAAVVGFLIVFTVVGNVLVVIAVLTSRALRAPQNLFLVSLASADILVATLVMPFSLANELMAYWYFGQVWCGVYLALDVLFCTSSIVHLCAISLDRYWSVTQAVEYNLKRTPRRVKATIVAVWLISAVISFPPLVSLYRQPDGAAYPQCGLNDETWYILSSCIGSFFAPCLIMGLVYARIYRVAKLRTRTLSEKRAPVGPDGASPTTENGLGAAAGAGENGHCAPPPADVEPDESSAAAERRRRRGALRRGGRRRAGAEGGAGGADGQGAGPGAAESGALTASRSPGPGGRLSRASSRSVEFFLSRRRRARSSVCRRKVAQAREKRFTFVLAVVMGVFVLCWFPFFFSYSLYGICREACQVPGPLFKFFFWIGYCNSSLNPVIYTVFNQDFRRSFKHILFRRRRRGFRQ

β3 adrenergic receptor = β3 adrenergic receptor (Homo sapiens, UniProt P13945); experiment: PDSP radioligand binding, β3; details: for Ki: full concentration-response curves, n = 3-6 unless noted; for inhibition at 10 µM: read-out: % inhibition at 10 µM
Chain of β3 adrenergic receptor (P13945 whole entry): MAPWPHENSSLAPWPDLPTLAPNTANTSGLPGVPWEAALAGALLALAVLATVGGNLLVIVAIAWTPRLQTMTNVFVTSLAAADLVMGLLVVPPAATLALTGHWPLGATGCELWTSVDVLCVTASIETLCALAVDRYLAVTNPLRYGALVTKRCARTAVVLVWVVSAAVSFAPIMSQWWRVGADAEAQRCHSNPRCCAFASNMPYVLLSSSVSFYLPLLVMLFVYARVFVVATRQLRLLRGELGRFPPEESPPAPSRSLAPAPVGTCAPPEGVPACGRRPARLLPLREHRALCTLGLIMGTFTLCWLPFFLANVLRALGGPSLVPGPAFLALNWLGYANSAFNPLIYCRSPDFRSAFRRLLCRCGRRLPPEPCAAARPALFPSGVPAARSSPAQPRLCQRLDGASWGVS

β2 adrenergic receptor = β2 adrenergic receptor (Homo sapiens, UniProt P07550); experiment: PDSP radioligand binding, β2; details: read-out: % inhibition at 10 µM
Chain of β2 adrenergic receptor (P07550 whole entry): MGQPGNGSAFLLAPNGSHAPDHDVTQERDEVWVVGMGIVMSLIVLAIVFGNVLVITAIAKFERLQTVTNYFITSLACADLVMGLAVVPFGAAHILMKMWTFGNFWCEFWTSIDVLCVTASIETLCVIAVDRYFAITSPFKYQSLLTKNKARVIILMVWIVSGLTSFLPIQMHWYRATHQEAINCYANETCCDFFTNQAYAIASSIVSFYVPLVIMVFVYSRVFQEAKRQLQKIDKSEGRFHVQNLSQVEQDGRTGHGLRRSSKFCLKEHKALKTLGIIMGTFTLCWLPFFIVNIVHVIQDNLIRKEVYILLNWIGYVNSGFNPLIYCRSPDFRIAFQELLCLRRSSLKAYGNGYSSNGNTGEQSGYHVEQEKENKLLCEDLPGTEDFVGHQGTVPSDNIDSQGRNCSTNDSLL

µ opioid receptor = µ opioid receptor (Homo sapiens, UniProt P35372); experiment: PDSP radioligand binding, µ opioid; details: read-out: % inhibition at 10 µM
Chain of µ opioid receptor (P35372 whole entry): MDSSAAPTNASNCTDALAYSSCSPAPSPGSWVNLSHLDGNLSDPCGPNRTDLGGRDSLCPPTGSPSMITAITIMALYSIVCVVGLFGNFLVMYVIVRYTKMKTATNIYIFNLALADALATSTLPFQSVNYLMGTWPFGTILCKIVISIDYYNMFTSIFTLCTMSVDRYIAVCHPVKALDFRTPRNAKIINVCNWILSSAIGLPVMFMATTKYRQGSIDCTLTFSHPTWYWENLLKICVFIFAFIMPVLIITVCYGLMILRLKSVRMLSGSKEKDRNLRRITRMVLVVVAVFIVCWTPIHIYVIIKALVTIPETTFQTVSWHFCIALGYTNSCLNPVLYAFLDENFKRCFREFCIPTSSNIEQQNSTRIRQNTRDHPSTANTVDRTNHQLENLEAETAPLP

[1] = target: 5HT1D serotonergic receptor (Homo sapiens, UniProt P28221); experiment: PDSP radioligand binding, 5HT1D; details: read-out: % inhibition at 10 µM
Chain of 5HT1D serotonergic receptor (P28221 whole entry): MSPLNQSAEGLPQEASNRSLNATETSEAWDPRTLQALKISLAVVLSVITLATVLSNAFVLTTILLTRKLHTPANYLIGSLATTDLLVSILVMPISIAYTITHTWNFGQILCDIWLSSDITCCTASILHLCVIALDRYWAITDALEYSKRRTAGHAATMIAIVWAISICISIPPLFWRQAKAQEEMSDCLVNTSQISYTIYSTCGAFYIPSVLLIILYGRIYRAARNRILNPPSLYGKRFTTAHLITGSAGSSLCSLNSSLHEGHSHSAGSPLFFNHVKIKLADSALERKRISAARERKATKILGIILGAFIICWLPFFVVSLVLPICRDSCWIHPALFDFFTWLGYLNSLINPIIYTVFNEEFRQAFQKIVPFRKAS

α1D adrenergic receptor = target: T3, α1D adrenergic receptor (Homo sapiens, UniProt P25100); experiment: PDSP radioligand binding, α1D; details: read-out: % inhibition at 10 µM
T3 sequence (P25100 1-572): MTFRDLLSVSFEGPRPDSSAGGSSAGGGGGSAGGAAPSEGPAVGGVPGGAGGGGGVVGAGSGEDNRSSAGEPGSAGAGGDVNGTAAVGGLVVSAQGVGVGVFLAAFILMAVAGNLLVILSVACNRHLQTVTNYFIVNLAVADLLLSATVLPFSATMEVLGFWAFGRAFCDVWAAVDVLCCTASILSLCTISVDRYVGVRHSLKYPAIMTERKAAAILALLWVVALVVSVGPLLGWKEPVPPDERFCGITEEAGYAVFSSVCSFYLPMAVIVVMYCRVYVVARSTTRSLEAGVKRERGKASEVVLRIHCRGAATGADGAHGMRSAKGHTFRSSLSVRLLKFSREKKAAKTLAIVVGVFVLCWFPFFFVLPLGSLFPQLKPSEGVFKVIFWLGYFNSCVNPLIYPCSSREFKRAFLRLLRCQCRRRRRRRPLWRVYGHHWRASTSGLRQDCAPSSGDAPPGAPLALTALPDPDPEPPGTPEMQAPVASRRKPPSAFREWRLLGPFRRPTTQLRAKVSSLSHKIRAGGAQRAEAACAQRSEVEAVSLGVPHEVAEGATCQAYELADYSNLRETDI

α1B adrenergic receptor = target: T4, α1B adrenergic receptor (Homo sapiens, UniProt P35368); experiment: PDSP radioligand binding, α1B; details: read-out: % inhibition at 10 µM
T4 sequence (P35368 1-520): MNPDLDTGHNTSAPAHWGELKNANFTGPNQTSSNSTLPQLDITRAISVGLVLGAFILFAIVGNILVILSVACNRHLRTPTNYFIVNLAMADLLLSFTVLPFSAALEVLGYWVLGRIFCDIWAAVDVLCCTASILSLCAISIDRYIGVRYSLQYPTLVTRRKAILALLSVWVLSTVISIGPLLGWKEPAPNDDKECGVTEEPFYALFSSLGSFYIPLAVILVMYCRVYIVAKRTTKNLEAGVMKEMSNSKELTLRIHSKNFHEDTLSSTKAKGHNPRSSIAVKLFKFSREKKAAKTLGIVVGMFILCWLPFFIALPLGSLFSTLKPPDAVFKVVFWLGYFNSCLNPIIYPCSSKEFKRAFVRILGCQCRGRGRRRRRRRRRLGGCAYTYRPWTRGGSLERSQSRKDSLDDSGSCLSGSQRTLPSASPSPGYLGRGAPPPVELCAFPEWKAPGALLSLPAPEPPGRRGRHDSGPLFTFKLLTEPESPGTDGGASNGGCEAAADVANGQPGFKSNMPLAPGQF

[2] = target: H4 histaminergic receptor (Homo sapiens, UniProt Q9H3N8); experiment: PDSP radioligand binding, H4; details: read-out: % inhibition at 10 µM
Chain of H4 histaminergic receptor (Q9H3N8 whole entry): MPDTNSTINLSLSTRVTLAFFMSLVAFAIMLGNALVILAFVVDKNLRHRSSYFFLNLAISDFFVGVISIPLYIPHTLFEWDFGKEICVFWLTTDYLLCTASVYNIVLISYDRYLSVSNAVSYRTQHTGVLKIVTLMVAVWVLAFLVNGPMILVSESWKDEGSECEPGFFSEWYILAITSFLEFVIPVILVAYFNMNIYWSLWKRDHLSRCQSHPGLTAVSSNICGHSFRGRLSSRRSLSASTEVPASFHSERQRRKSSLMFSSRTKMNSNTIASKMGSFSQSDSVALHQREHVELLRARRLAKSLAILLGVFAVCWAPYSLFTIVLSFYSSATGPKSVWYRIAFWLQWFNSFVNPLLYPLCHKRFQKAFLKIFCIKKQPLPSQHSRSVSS

[3] = target: H3 histaminergic receptor (Homo sapiens, UniProt Q9Y5N1); experiment: PDSP radioligand binding, H3; details: read-out: % inhibition at 10 µM
Chain of H3 histaminergic receptor (Q9Y5N1 whole entry): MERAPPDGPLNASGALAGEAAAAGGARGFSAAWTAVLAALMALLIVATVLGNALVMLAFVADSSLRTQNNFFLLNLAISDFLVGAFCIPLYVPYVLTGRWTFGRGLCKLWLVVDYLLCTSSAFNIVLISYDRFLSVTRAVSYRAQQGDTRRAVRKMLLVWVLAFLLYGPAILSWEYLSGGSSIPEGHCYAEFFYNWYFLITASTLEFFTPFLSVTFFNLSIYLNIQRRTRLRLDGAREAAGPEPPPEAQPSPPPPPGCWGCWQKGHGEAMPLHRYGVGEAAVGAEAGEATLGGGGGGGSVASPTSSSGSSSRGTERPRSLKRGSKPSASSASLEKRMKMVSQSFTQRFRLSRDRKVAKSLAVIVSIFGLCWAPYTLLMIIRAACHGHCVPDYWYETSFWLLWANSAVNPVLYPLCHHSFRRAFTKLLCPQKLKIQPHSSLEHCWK

5HT3 ion channels = target: T5, 5HT3 ion channels (Homo sapiens, UniProt P46098); experiment: PDSP radioligand binding, 5HT3 ion channel; details: for inhibition at 10 µM: read-out: % inhibition at 10 µM
T5 sequence (P46098 24-478): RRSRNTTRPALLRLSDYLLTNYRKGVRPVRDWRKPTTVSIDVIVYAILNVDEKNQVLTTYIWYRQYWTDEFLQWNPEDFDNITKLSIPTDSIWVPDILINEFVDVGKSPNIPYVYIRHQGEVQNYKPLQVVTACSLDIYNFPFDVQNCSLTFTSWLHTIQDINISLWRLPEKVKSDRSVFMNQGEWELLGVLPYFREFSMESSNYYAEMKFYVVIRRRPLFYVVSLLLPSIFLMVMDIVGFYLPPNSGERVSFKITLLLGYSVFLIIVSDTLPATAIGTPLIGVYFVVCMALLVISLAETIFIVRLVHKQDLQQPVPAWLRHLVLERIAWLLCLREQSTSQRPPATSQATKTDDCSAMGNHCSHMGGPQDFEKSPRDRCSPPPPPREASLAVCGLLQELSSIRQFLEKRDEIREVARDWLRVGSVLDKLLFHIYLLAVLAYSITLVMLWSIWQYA

Compound | Ki (α2A adrenergic receptor) [nM] | Ki (α2C adrenergic receptor) | Ki (β3 adrenergic receptor) [nM] | inhibition at 10 µM (α2A adrenergic receptor; single concentration 10 µM) [%] | inhibition at 10 µM (α2C adrenergic receptor; single concentration 10 µM) [%] | inhibition at 10 µM (β3 adrenergic receptor; single concentration 10 µM) [%] | inhibition at 10 µM (β2 adrenergic receptor; single concentration 10 µM) [%] | inhibition at 10 µM (µ opioid receptor; single concentration 10 µM) [%] | inhibition at 10 µM ([1]; single concentration 10 µM) [%] | inhibition at 10 µM (α1D adrenergic receptor; single concentration 10 µM) [%] | inhibition at 10 µM (α1B adrenergic receptor; single concentration 10 µM) [%] | inhibition at 10 µM ([2]; single concentration 10 µM) [%] | inhibition at 10 µM ([3]; single concentration 10 µM) [%] | inhibition at 10 µM (5HT3 ion channels; single concentration 10 µM) [%] | also measured
CNC(=O)[C@@]12C[C@@H]1[C@@H](n1cnc3c(NCc4cccc(Cl)c4)nc(C#Cc4ccc(F)c(F)c4)nc31)[C@H](O)[C@@H]2O [Compound 1] | 4770 ± 1430 | 2040 ± 950 nM | 1450 ± 510 | – | – | – | – | – | – | – | – | – | – | – | inhibition at 10 µM (α2A adrenergic receptor): 19%; inhibition at 10 µM (α2C adrenergic receptor): 63%; inhibition at 10 µM (β3 adrenergic receptor): 74%; inhibition at 10 µM (β2 adrenergic receptor): 0%; inhibition at 10 µM (µ opioid receptor): 11%; inhibition at 10 µM [1]: 0%; inhibition at 10 µM (α1D adrenergic receptor): 3%; inhibition at 10 µM (α1B adrenergic receptor): 44%; inhibition at 10 µM [2]: 17%; inhibition at 10 µM [3]: 8%; inhibition at 10 µM (5HT3 ion channels): 3%
CNC(=O)[C@@]12C[C@@H]1[C@@H](n1cnc3c(NCc4cccc(Cl)c4)nc(C#Cc4ccc(F)cc4)nc31)[C@H](O)[C@@H]2O [Compound 2] | – | 3640 ± 1370 nM | 1560 ± 560 | 6 | 48 | 67 | 0 | 7 | 21 | 6 | 1 | 28 | 0 | 26 | –
CNC(=O)[C@@]12C[C@@H]1[C@@H](n1cnc3c(NCc4cccc(Cl)c4)nc(C#Cc4ccccc4Cl)nc31)[C@H](O)[C@@H]2O [Compound 3] | – | 1810 ± 250 nM | 1170 ± 190 | 22 | 57 | 57 | 0 | 23 | 10 | 20 | 7 | 9 | 0 | 50 | –
CNC(=O)[C@@]12C[C@@H]1[C@@H](n1cnc3c(NCc4cccc(Cl)c4)nc(Cl)nc31)[C@H](O)[C@@H]2O [Compound 4] | – | – | – | 26 | 11 | 0 | 2 | 1 | 31 | 0 | 30 | – | 0 | 5 | –
CNC(=O)[C@@]12C[C@@H]1[C@@H](n1cnc3c(NC)nc(C#Cc4ccc(F)c(F)c4)nc31)[C@H](O)[C@@H]2O [Compound 5] | – | – | 2320 ± 390 | 0 | 13 | 22 | 2 | 5 | 13 | 0 | 11 | – | 0 | 2 | –
O[C@@H]1[C@H](O)[C@@H]2C[C@@H]2[C@H]1n1cnc2c(NCc3cccc(Cl)c3)nc(C#Cc3ccc(F)c(F)c3)nc21 [Compound 6] | – | 5400 ± 1220 nM | 2460 ± 130 | 14 | 11 | 27 | 0 | 0 | 12 | 5 | 19 | – | 0 | 0 | –
O[C@@H]1[C@H](O)[C@@H]2C[C@@H]2[C@H]1n1cnc2c(NCc3cccc(Cl)c3)ncnc21 [Compound 7] | – | 5360 ± 1250 nM | – | 26 | 51 | 4 | 53 | 1 | 4 | 30 | 32 | 0 | 0 | 83 | Ki (5HT3 ion channels; full concentration-response curves, n = 3-6 unless noted): 3260 ± 800 nM
Fc1ccc(C#Cc2nc(NCc3cccc(Cl)c3)c3nc[nH]c3n2)cc1F [Compound 8] | 2190 ± 270 | 1020 ± 690 nM | – | 34 | 83 | 5 | 0 | 15 | 26 | 0 | 30 | 5 | 0 | 0 | –
Clc1cccc(CNc2nc(Cl)nc3[nH]cnc23)c1 [Compound 9] | 3000 ± 510 | 310 nM and 314 nM | – | 58 | 87 | 0 | 0 | 0 | 14 | 0 | 0 | 5 | 3 | 28 | –
O[C@@H]1[C@H](O)[C@@H]2C[C@@H]2[C@H]1n1cnc2c(NC(C3CC3)C3CC3)nc(Cl)nc21 [Compound 10] | – | – | – | 17 | 0 | 0 | 2 | 0 | 18 | 13 | 8 | 6 | 8 | 3 | –
